Type in all cases: cell-based
The subject of experiment [1] is HIV-1 integrase E138K pseudovirus. The experiment in a line: Pseudovirus-based assay of anti-HIV-1 activity, E138K strain. To be noted: HEK-293T, 72 h. As for the experimental part:
(§1) The inhibitory activity against pseudoviruses containing common clinical mutation sites of HIV-1 integrase (G140S/Q148R, Q148R/N155H, E138K, Q148H, R263K and Y143R/Q148H) was determined.
(§2) Preparation of pseudovirus: Using the lentiviral plasmid pNL4-3-Luc-RE (HedgehogBio) as the backbone, an integrase point mutation plasmid was constructed. HEK293T cells (ATCC) were seeded in a 6-well plate at 5×10^5 cells per well. After 24 hours, when the cell density reached 60% to 80%, transfection was performed. pNL4-3-Luc-R-E- or pNL4-3-Luc-R-E--IN-mutant plasmid and lentivirus packaging plasmid pMD2.G (Beijing Zoman Bio) were added to the transfection reagent in a certain proportion. Cell transfection was performed according to the instructions of transfection reagent PEI25K (Maokang Biotechnology). After 48 hours, the supernatant was collected, centrifuged at 3000 rpm for 5 minutes, filtered with a 0.45 μm microporous membrane, aliquoted, and stored at −80° C. for later use. In HEK293T cells, the pseudovirus titer was determined based on luciferase activity.
(§3) Determination of antiviral activity of compounds: In a 96-well V-bottom plate, the compound to be tested was diluted with DMSO semi-logarithmically, and a compound solution 4 times the final concentration was prepared for later use. According to the results of different virus titrations, the virus was diluted with complete culture medium for later use. HEK293T cells were digested with trypsin to obtain a cell suspension of 2×10^5/mL. 50 µl of compound diluent, 50 µl of virus diluent and 100 µl of cell suspension were added successively to a 96-well flat-bottomed plate. The final concentration of the compound was 1000 nM to 0.1 nM. The 96-well plate was incubated in a 37° C., 5% CO2 incubator. After 72 hours, 100 µL of culture supernatant was pipetted out carefully from each well of the 96-well plate, 25 µL of Steady-Glo detection reagent (Promega, Cat #E2550) was added to each well in the dark, and then assayed on a machine (Tecan, Type #Spark).

Experiment [2] has as its system HIV-1 integrase Q148H pseudovirus. Put plainly: Pseudovirus-based assay of anti-HIV-1 activity, Q148H strain. To be noted: HEK-293T, 72 h. The procedure: as §1, §2, §3
In experiment [3] the test system is HIV-1 integrase R263K pseudovirus. The experiment in a line: Pseudovirus-based assay of anti-HIV-1 activity, R263K strain. The settings on record: HEK-293T, 72 h. The procedure:
as §1, §2, §3

The subject of experiment [4] is HIV-1 integrase Y143R/Q148H pseudovirus. The experiment in a line: Pseudovirus-based assay of anti-HIV-1 activity, Y143R/Q148H strain. To be noted: HEK-293T, 72 h. The procedure:
as §1, §2, §3

The test system of experiment [5] is HIV-1 integrase G140S/Q148R pseudovirus. Put plainly: Pseudovirus-based assay of anti-HIV-1 activity, G140S/Q148R strain. The settings on record: HEK-293T, 72 h. As for the experimental part: as §1, §2, §3
Experiment [6] deals with HIV-1 integrase Q148R/N155H pseudovirus. Put plainly: Pseudovirus-based assay of anti-HIV-1 activity, Q148R/N155H strain. To be noted: HEK-293T, 72 h. As for the experimental part:
as §1, §2, §3

The subject of experiment [7] is HIV-1 subtype A RW/92/009. Put plainly: Inhibitory activity against clinical HIV-1 strain RW/92/009 in PBMC. The settings on record: for EC50: read-out: hPBMC/HIV-1 EC50; for EC90: read-out: hPBMC/HIV-1 EC90. The procedure:
(§4) Preparation of virus: Clinical HIV-1 virus strains (Table 3) were obtained from the US NIH AIDS Research and Reference Reagent Library. PBMC were extracted from three fresh blood samples that were HIV and HBV seronegative, mixed and cultured, and PHA-P (phytohemagglutinin) was added to stimulate activation. The cells and virus were incubated at 37° C./5% CO2, and the cell culture supernatant after infection was collected and stored frozen at −80° C. Each viral titer was titrated in pooled PBMCs from three donors.
(§5) Assay of antiviral activity of compounds: Frozen PBMCs were resuspended in fresh culture medium (1×10^6 cells/mL), and added to a round-bottom 96-well plate ([…]). 100 μl of culture medium containing 2 times the final concentration of the compound was added to each well, and then 50 μL of virus solution was added (the final infection dose was MOI=0.002). After 7 days of culture, the reverse transcriptase activity in the supernatant was determined to evaluate HIV-1 replication. At the same time, a 96-well culture plate with only compounds and cells was prepared for the assay of compound cytotoxicity.

Experiment [8] has as its system HIV-1 subtype C MW/93/959. The experiment in a line: Inhibitory activity against clinical HIV-1 strain MW/93/959 in PBMC. To be noted: for EC50: read-out: hPBMC/HIV-1 EC50; for EC90: read-out: hPBMC/HIV-1 EC90. As for the experimental part:
as §4, §5

Experiment [9] concerns HIV-1 subtype D UG/92/001. The experiment in a line: Inhibitory activity against clinical HIV-1 strain UG/92/001 in PBMC. The settings on record: for EC50: read-out: hPBMC/HIV-1 EC50; for EC90: read-out: hPBMC/HIV-1 EC90. The procedure:
as §4, §5

Setting [10] is: Human immunodeficiency virus 1, 168 h, RW/92/009, human PBMC, 7 days, reverse transcriptase activity in supernatant.
Setting [11] is: Human immunodeficiency virus 1, 168 h, MW/93/959, human PBMC, 7 days, reverse transcriptase activity in supernatant.
[12] abbreviates: Human immunodeficiency virus 1, 168 h, UG/92/001, human PBMC, 7 days, reverse transcriptase activity in supernatant.
Where [13] appears, read: Human immunodeficiency virus 1, PBMC, 168 h.

Where two headings read alike, the source gives them in different places. Bounds are passed on as bounds.

With `C[C@H]1CO[C@@H]2Cn3cc(C(=O)NCc4ccc(F)cc4F)c(=O)c(O)c3C(=O)N12` [Cabotegravir, cabotegravir], the EC50 in [1] stood at 3.7 nM; in experiment [2] it was 3.6 nM; in experiment [3] it was 4.9 nM; in experiment [4], 4.2 nM; in experiment [5] it was 63.5 nM; in experiment [6], 98 nM. The figures for the EC50 in experiment [7] (setting [10]), in experiment [8] (setting [11]) and in [9] (setting [12]) were 0.09 nM, 0.06 nM and 0.46 nM, respectively. Besides, the EC90 in experiment [1] was 24.4 nM; in experiment [2] it was 15.4 nM; in experiment [3], 58.8 nM; in experiment [4] it was 24.8 nM; in experiment [5] it was 301 nM; in [6] it was more than 1000 nM. Further, the EC90 came out at 0.59 nM in experiment [7] (setting [10]), 0.67 nM in experiment [8] (setting [11]) and 2.94 nM in experiment [9] (setting [12]).

On to `O=C(NCc1ccc(F)cc1F)c1cn2c(c(O)c1=O)C(=O)N1[C@@H](CF)CO[C@@H]1C2` [Compound 2], for which the EC50 was determined as 2.3 nM in [1]; 2.2 nM in experiment [2]; 2.9 nM in experiment [3]; 3.1 nM in [4]; 42.2 nM in experiment [5]; 82.3 nM in experiment [6]. Further, the EC50 in experiment [7] (setting [13]) was 0.02 nM; in experiment [8] (setting [13]) it was 0.007 nM; in [9] (setting [13]) it was 0.28 nM. Further, the EC90 in [1] is 14.1 nM; in experiment [2], 12.5 nM; in experiment [3], 25.1 nM; in [4], 14.1 nM; in [5], 194 nM; in experiment [6], more than 1000 nM. The EC90 in [7] (setting [13]) stood at 0.4 nM; in experiment [8] (setting [13]), 0.37 nM; in experiment [9] (setting [13]), 1.28 nM.

The values above are taken from US20250188091A1, “PYRIDONE COMPOUND HAVING INTEGRASE INHIBITORY ACTIVITY AND PHARMACEUTICAL USE THEREOF” (priority 2021, published 2025).
